The values that follow are results of earlier work, collected in patent US4000310A, “Pharmaceutical compositions containing 6-methyl-3,4-diphenyl-3,4,5,6-tetrahydro-2-pyrone or derivatives thereof” (Union Chimique Continentale-U.C.C, priority 1974, dated 1976).

For this data set, the system named is animals. The settings on record: caffeine, general statement; cited from earlier work.

As to `Cn1c(=O)c2c(ncn2C)n(C)c1=O` [caffeine], the sleep inhibiting effect entry was “caffeine does”.
